# Measured values published in US10975087B2, “Solid forms of tetrahydropyranyl amino-pyrrolopyrimidinone compounds” (ArQule, Inc., priority 2018, dated 2021).
# Where two headings read alike, the source gives them in different places.
# Tests used:
# Type in all cases: physicochemical
# Competitive slurrying = conditions: for Form (competitive slurrying result) / form observed after competitive slurrying (XRPD): ca. 48 hours; for Form (competitive slurrying result): XRPD; for form observed after competitive slurrying (XRPD): ambient and 50° C., acetone, ethanol, acetonitrile
# Method: Approximately 5 mg of each form (Form 1 and Form 4, Form 1 and Form 8, and Form 4 and Form 8) was weighed and agitated at ambient and 50° C. in minimal acetone, ethanol, diisopropyl ether (DIPE) and acetonitrile. Approximately 8 drops of each solvent was added and the samples were then agitated for ca. 48 hours, before being analyzed by XRPD. Table 9 details the conditions.
# [1] = Thermodynamic solubility pH measurements; conditions: for Solubility (mg/mL) / Solubility: 48 hours
# Method: After 2 hours at 25° C., the pH of each slurry was measured and the pH was adjusted, where required. After 24 hours at 25° C., the pH of each slurry was measured and the pH was adjusted, where required. After 48 hours at 25° C., the slurries were separated by centrifugation. The solids were analyzed by XRPD, while the pH of the separated liquors were also measured.
# Aqueous solubility = conditions: for Solubility (mg/mL): Water; for Form: XRPD of damp solid after slurrying in Water, AXRPD: Amorphous by XRPD, but limited material for analysis; for XRPD post aqueous solubility: amorphous: Form 1 from solubility screen, Form 8: Amorphous, limited material
# Method: (§1) Aqueous and acetone solubility was carried out using 3-10 mg of material, depending on availability, and slurrying in 150-200 μL of acetone or 300 μL of deionized water. The samples were agitated at ambient temperature then filtered by centrifugation (0.22 μm nylon filter) after ca. 24 hours and the solids analyzed by XRPD as damp solids. The filtrates were analyzed by HPLC for concentration determination. The water solubility was too low for detection using the current analytical method.
# [2] = Gravimetric vapor sorption (GVS); conditions: for Post-GVS analysis (form): after exposure to elevated humidity; for XRPD post GVS: cell wraps: Remained | unchanged; for GVS (hygroscopicity): summary Table 11
# Method: Approximately 10-20 mg of sample was placed into a mesh vapor sorption balance pan and loaded into an IGASorp Moisture Sorption Analyzer balance by Hiden Analytical. The sample was subjected to a ramping profile from 40-90% relative humidity (RH) at 10% increments, maintaining the sample at each step until a stable weight had been achieved (98% step completion). After completion of the sorption cycle, the sample was dried using the same procedure to 0% RH, and finally taken back to the starting point of 40% RH. Two cycles were performed. The weight change during the sorption/desorption cycles were plotted, allowing for the hygroscopic nature of the sample to be determined.
# Acetone solubility = conditions: for Form: XRPD of damp solid after slurrying in Acetone, *Small amount of material analyzed; for Solubility / solid form after slurrying in acetone (XRPD) / solubility at 24 h: acetone; for solubility at 24 h: organic solvent or mixture, thermodynamic from solid; for Acetone solubility: residual solid: form of residual solid, amorphous input: Form 2 residual solid with additional peaks
# Method: as §1
# [3] = Long term stability testing at 25° C./60% RH
# Method: Long term stability testing was carried out for Form 1 at 25° C./60% RH. […] The water content was measured by KF analysis.
# [4] = Accelerated stability testing at 40° C./75% RH for 6 months
# Method: Accelerated stability testing was carried out for Form 1 at 40° C./75% RH for 6 months. […] The water content was measured by KF analysis.
# [5] = 7 day stability testing, open vials at 40° C./75% RH, ambient and 80° C.; conditions: for Purity after 1 week (%) / area % purity and form changes after 1 week: open vials; for T = 0 purity (%): T = 0, before storage; for area % purity and form changes after 1 week: ambient, 40° C./75% RH and 80° C.; for Stability testing: cell wraps: No drop in purity or change in form
# [6] = ambient temperature, ca. 24 hours
# [7] = deionized water, ambient temperature, ca. 24 hours
# [8] = summary Table 11, HPLC of filtrate
compound,measurement,setting,value
O=C(c1ccc(Oc2ccccc2)cc1Cl)c1c[nH]c2ncnc(N[C@@H]3CC[C@@H](CO)OC3)c12 [1 and 4],Form (competitive slurrying result),"Competitive slurrying; DIPE, 50° C.",Form 1
same,Form (competitive slurrying result),"Competitive slurrying; Ethanol, 50° C.",Form 1
same,Form (competitive slurrying result),"Competitive slurrying; Ethanol, Ambient",Form 1
O=C(c1ccc(Oc2ccccc2)cc1Cl)c1c[nH]c2ncnc(N[C@@H]3CC[C@@H](CO)OC3)c12 [1 and 8],Form (competitive slurrying result),"Competitive slurrying; DIPE, 50° C.",Form 1
same,Form (competitive slurrying result),"Competitive slurrying; Ethanol, 50° C.",Form 1
same,Form (competitive slurrying result),"Competitive slurrying; Ethanol, Ambient",Form 1
O=C(c1ccc(Oc2ccccc2)cc1Cl)c1c[nH]c2ncnc(N[C@@H]3CC[C@@H](CO)OC3)c12 [4 and 8],Form (competitive slurrying result),"Competitive slurrying; DIPE, 50° C.",Form 4
same,Form (competitive slurrying result),"Competitive slurrying; Ethanol, 50° C.",Form 1
same,Form (competitive slurrying result),"Competitive slurrying; Ethanol, Ambient",Form 1
O=C(c1ccc(Oc2ccccc2)cc1Cl)c1c[nH]c2ncnc(N[C@@H]3CC[C@@H](CO)OC3)c12.O=S(=O)(O)CCS(=O)(=O)O [Edisylate Pattern 1],pH - 2 Hours at 25° C.,[1]; Input Solvent Water,2.32
same,pH - 24 Hours at 25° C.,[1]; Input Solvent Water,2.18
same,pH - 48 Hours at 25° C.,[1]; Input Solvent Water,2.37
same,Solubility (mg/mL),"[1]; Input Solvent Water, 25° C.",<LOD
same,pH - 2 Hours at 25° C.,[1]; Input Solvent pH 1,0.17
same,pH - 24 Hours at 25° C.,[1]; Input Solvent pH 1,0.70
same,pH - 48 Hours at 25° C.,[1]; Input Solvent pH 1,1.11
same,Solubility,"[1]; Input Solvent pH 1, 25° C.",0.7 mg/mL
same,pH - 2 Hours at 25° C.,[1]; Input Solvent pH 4.5,4.40
same,pH - 24 Hours at 25° C.,[1]; Input Solvent pH 4.5,4.29
same,pH - 48 Hours at 25° C.,[1]; Input Solvent pH 4.5,4.22
same,Solubility (mg/mL),"[1]; Input Solvent pH 4.5, 25° C.",<LOD
same,pH - 2 Hours at 25° C.,[1]; Input Solvent pH 6.5,6.44
same,pH - 24 Hours at 25° C.,[1]; Input Solvent pH 6.5,6.03
same,pH - 48 Hours at 25° C.,[1]; Input Solvent pH 6.5,5.68
same,Solubility,"[1]; Input Solvent pH 6.5, 25° C.",<0.1 mg/mL
O=C(c1ccc(Oc2ccccc2)cc1Cl)c1c[nH]c2ncnc(N[C@@H]3CC[C@@H](CO)OC3)c12 [Form 1 and Form 4],form observed after competitive slurrying (XRPD),Competitive slurrying; DIPE,Form 1 was the dominant form
O=C(c1ccc(Oc2ccccc2)cc1Cl)c1c[nH]c2ncnc(N[C@@H]3CC[C@@H](CO)OC3)c12 [Form 1 and Form 8],form observed after competitive slurrying (XRPD),Competitive slurrying; DIPE,Form 1 was the dominant form
"O=C(c1ccc(Oc2ccccc2)cc1Cl)c1c[nH]c2ncnc(N[C@@H]3CC[C@@H](CO)OC3)c12 [Form 1, (2-chloro-4-phenoxyphenyl)(4-(((3R,6S)-6-(hydroxymethyl)tetrahydro-2H-pyran-3-yl)amino)-7H-pyrrolo[2,3-d]pyrimidin-5-yl)methanone]",Solubility (mg/mL),Aqueous solubility; [6],API not detected
same,Form,Aqueous solubility,Form 1
same,XRPD post aqueous solubility,Aqueous solubility,Form 1
same,aqueous solubility,Aqueous solubility; [7],not soluble
same,aqueous solubility,Aqueous solubility; [8],API not detected
same,hygroscopic nature by GVS,[2],non-hygroscopic
same,Post-GVS analysis (form),[2],remain Form 1
same,uptake by GVS,[2]; at 90% RH,< 0.2%
same,XRPD post GVS,[2],Remained
same,GVS (hygroscopicity),[2],<0.2% uptake
same,Form,Acetone solubility,Form 2*
same,Solubility,Acetone solubility; [6],12.3 mg/mL
same,solid form after slurrying in acetone (XRPD),Acetone solubility; [6],conversion to Form 2
same,solubility at 24 h,"Acetone solubility; summary Table 11, read-out: Acetone solubility",12.3 mg/mL
same,Acetone solubility: residual solid,Acetone solubility,(Form 2 residual
same,"area % purity and form changes, long term storage",[3],no decrease in area % purity or form changes
same,Chemical Purity (% AUC),[3]; 0 months,98.9 % AUC
same,Crystallinity (XRPD),[3]; 0 months,Form 1
same,Water Content (KF) (%),[3]; 0 months,0.16%
same,Chemical Purity (% AUC),[3]; 1 month,98.8 % AUC
same,Water Content (KF) (%),[3]; 1 month,0.28%
same,Chemical Purity (% AUC),[3]; 3 months,98.8 % AUC
same,Water Content (KF) (%),[3]; 3 months,0.41%
same,Chemical Purity (% AUC),[3]; 6 months,98.9 % AUC
same,Crystallinity (XRPD),[3]; 6 months,Form 1
same,Water Content (KF) (%),[3]; 6 months,0.47%
same,Chemical Purity (% AUC),[3]; 9 months,98.9 % AUC
same,Water Content (KF) (%),[3]; 9 months,0.29%
same,Chemical Purity (% AUC),[3]; 12 months,98.8 % AUC
same,Crystallinity (XRPD),[3]; 12 months,Form 1
same,Water Content (KF) (%),[3]; 12 months,0.46%
same,Chemical Purity (% AUC),[3]; 18 months,99.0 % AUC
same,Water Content (KF) (%),[3]; 18 months,0.49%
same,Chemical Purity (% AUC),[3]; 24 months,98.9 % AUC
same,Crystallinity (XRPD),[3]; 24 months,Form 1
same,Water Content (KF) (%),[3]; 24 months,0.37%
same,Chemical Purity (% Area),[4]; 0 months,98.9 % Area
same,Crystallinity (XRPD),[4]; 0 months,Form 1
same,Water Content (KF) (%),[4]; 0 months,0.16%
same,Chemical Purity (% Area),[4]; 1 month,98.8 % Area
same,Water Content (KF) (%),[4]; 1 month,0.36%
same,Chemical Purity (% Area),[4]; 3 months,98.8 % Area
same,Water Content (KF) (%),[4]; 3 months,0.53%
same,Chemical Purity (% Area),[4]; 6 months,98.9 % Area
same,Crystallinity (XRPD),[4]; 6 months,Form 1
same,Water Content (KF) (%),[4]; 6 months,0.57%
same,"area % purity and form changes, accelerated storage",[4]; 6 months,no decrease in area % purity or form changes
same,Purity after 1 week (%),[5]; 40° C./75% RH,99.4%
same,Purity after 1 week (%),[5]; 80° C.,99.4%
same,Purity after 1 week (%),[5]; Ambient,99.3%
same,T = 0 purity (%),[5],99.3%
same,area % purity and form changes after 1 week,[5],no decrease in area % purity or form changes
same,Stability testing,[5],No drop in purity
same,relative stability of the form,Competitive slurrying; under the conditions assessed,thermodynamically more stable form
O=C(c1ccc(Oc2ccccc2)cc1Cl)c1c[nH]c2ncnc(N[C@@H]3CC[C@@H](CO)OC3)c12 [Form 4 and Form 8],form observed after competitive slurrying (XRPD),Competitive slurrying; DIPE,"Form 1 and Form 2 mixtures, pure Form 1, pure Form 4 and pure Form 2"
"O=C(c1ccc(Oc2ccccc2)cc1Cl)c1c[nH]c2ncnc(N[C@@H]3CC[C@@H](CO)OC3)c12 [Form 4, (2-chloro-4-phenoxyphenyl)(4-(((3R,6S)-6-(hydroxymethyl)tetrahydro-2H-pyran-3-yl)amino)-7H-pyrrolo[2,3-d]pyrimidin-5-yl)methanone]",Solubility (mg/mL),Aqueous solubility; [6],API not detected
same,Form,Aqueous solubility,Form 4
same,XRPD post aqueous solubility,Aqueous solubility,Form 4
same,aqueous solubility,Aqueous solubility; [7],not soluble
same,aqueous solubility,Aqueous solubility; [8],API not detected
same,hygroscopic nature by GVS,[2],non-hygroscopic
same,Post-GVS analysis (form),[2],remain Form 4
same,uptake by GVS,[2]; at 90% RH,0.4%
same,XRPD post GVS,[2],Remained
same,GVS (hygroscopicity),[2],0.4% uptake
same,Form,Acetone solubility,Form 1
same,Solubility,Acetone solubility; [6],15.1 mg/mL
same,solid form after slurrying in acetone (XRPD),Acetone solubility; [6],converted to the Form 1 polymorph
same,Acetone solubility: residual solid,Acetone solubility,(Form 1 residual
same,Acetone solubility,Acetone solubility; summary Table 11,15.1 mg/mL
same,Purity after 1 week (%),[5]; 40° C./75% RH,98.9%
same,Purity after 1 week (%),[5]; 80° C.,98.9%
same,Purity after 1 week (%),[5]; Ambient,98.9%
same,T = 0 purity (%),[5],98.8%
same,area % purity and form changes after 1 week,[5],no decrease in area % purity or form changes
same,Stability testing,[5],No drop in purity
"O=C(c1ccc(Oc2ccccc2)cc1Cl)c1c[nH]c2ncnc(N[C@@H]3CC[C@@H](CO)OC3)c12 [Form 8, (2-chloro-4-phenoxyphenyl)(4-(((3R,6S)-6-(hydroxymethyl)tetrahydro-2H-pyran-3-yl)amino)-7H-pyrrolo[2,3-d]pyrimidin-5-yl)methanone]",Solubility (mg/mL),Aqueous solubility; [6],API not detected
same,Form,Aqueous solubility,AXRPD
same,XRPD post aqueous solubility,Aqueous solubility,"Amorphous,"
same,aqueous solubility,Aqueous solubility; [7],not soluble
same,aqueous solubility,Aqueous solubility; [8],API not detected
same,hygroscopic nature by GVS,[2],non-hygroscopic
same,Post-GVS analysis (form),[2],remain Form 8
same,"uptake by GVS, first cycle","[2]; at 90% RH, first cycle",< 0.3%
same,"uptake by GVS, second cycle","[2]; at 90% RH, second cycle",0.8%
same,XRPD post GVS,[2],Remained
same,GVS (hygroscopicity),[2],0.8% uptake
same,Form,Acetone solubility,Form 2*
same,solid form after slurrying in acetone (XRPD),Acetone solubility; [6],conversion to Form 2
same,solubility at 24 h,"Acetone solubility; Acetone, ambient temperature, ca. 24 hours, read-out: Solubility",11.5 mg/mL
same,Acetone solubility: residual solid,Acetone solubility,(Form 2 residual
same,Acetone solubility,Acetone solubility; summary Table 11,11.5 mg/mL
same,Purity after 1 week (%),[5]; 40° C./75% RH,99.0%
same,Purity after 1 week (%),[5]; 80° C.,99.0%
same,Purity after 1 week (%),[5]; Ambient,99.0%
same,T = 0 purity (%),[5],99.0%
same,area % purity and form changes after 1 week,[5],no decrease in area % purity or form changes
"O=C(c1ccc(Oc2ccccc2)cc1Cl)c1c[nH]c2ncnc(N[C@@H]3CC[C@@H](CO)OC3)c12 [Form 11, (2-chloro-4-phenoxyphenyl)(4-(((3R,6S)-6-(hydroxymethyl)tetrahydro-2H-pyran-3-yl)amino)-7H-pyrrolo[2,3-d]pyrimidin-5-yl)methanone]",hygroscopic nature by GVS,[2],non-hygroscopic
